Patent publication US20080015138A1, “Metal binding compounds, metal binding compositions, and their uses” (AFFINERGY, INC., priority 2006, published 2008)
pEC50: −log10 of the molar value. Square brackets hold non-standard residues; d marks the D form. Ends that are not written are not given here.

Legend:
[1] = Peptide binding assay on titanium beads (streptavidin-AP detection, binding curve EC50)
Method: (§1) Relative binding strengths (affinities) of the peptides to metal, also used as a measure of binding specificity, were determined by testing serial dilutions of the peptide for binding to a target substrate comprising metal, as represented by titanium or steel. Plotting the absorbance observed across the concentration range for each peptide sequence yielded a binding curve of the peptides to its target substrate from which can be determined an EC50 (e.g., the concentration of peptide that gives 50% of the maximum signal in the binding curve is used as an estimate of the affinity of the peptide for the target). Preferred are peptides that bind to the selected target substrate (in this case, metal) with binding specificity, preferably with an EC50 of less than or equal to about 1 μM, and more preferably, in the nanomolar range (e.g., <0.1 μM). […] A typical binding assay for titanium (note, a different substrate may be substituted for titanium in the assay) may be perofrmed according to the following procedure.
(§2) Briefly, 5/32-inch diameter Grade 200 titanium beads were washed by sonication in acetone for 15 minutes, and the beads were allowed to dry. One bead was added to each well of a 96-well polypropylene plate. Two hundred fifty (250) μL of 1% BSA in PBS was added to each well of the plate. The surface of the wells was blocked by incubation for 1 hour at 20° C. with shaking at 500 rpm. The plate was washed three times with 250 μL of buffer-T per well. A 1:3 dilution series of each of the peptides was prepared using PBS as a diluent, starting at a peptide concentration of 20 μM, and going down to 0.0001 μM. A 200 μL sample of each dilution was added to wells of the plate. The plate was incubated for 1 hour at 20° C. with shaking at 500 rpm. The beads were washed three times with 250 μL of buffer-T per well. Two hundred (200) μL of streptavidin-alkaline phosphatase (“streptavidin AP”) reagent, at a dilution of 1:2000 in buffer+1% BSA, was added to each well. The plate was incubated for 30 minutes at room temperature. The beads were washed three times with 250 μL of buffer-T per well. Two hundred (200) μL of color development reagent (PNPP, p-nitrophenol phosphate) was added to each well. After color had developed (10 minutes), the samples were transferred to a clear 96-well plate and the absorbance at 405 nm determined. A binding curve was generated by plotting the absorbance at 405 nm against the peptide concentration (μM).

[2] = Peptide binding assay on zirconium metal alloy; conditions: Table 6
Method: as §1, §2
(§3) In this embodiment, illustrated are additional characterizations of the binding specificities of examples of metal binding domains, and peptides containing the metal binding domains, according to the present invention to various substrates, such as metal (as illustrated by stainless steel, zirconium metal alloy […]) versus binding to a polymer (as illustrated by polystyrene). Using the methods illustrated in Example 2, binding specificities for the various substrates were determined; with the results illustrated in Table 6 (Note: “none” means any binding detected was very low, and not above background binding (such as by a control peptide with no binding specificity for metal) in the binding assay; and thus, a binding curve for calculation of an EC50 could not be generated).

[3] = Peptide binding assay on stainless steel; conditions: for EC50: Table 6, read-out: EC50 (μM) stainless steel; for binding to stainless steel (in words): biotinylated peptides
Method: as §1, §2, §3

[4] = Peptide binding assay on polymer (polystyrene); conditions: Table 6, polymer illustrated by polystyrene
Method: as §1, §2, §3

[5] = Peptide binding assay on glass; conditions: Table 6
Method: as §1, §2, §3

[6] = Table 3, substituted peptides labeled with biotin, binding to titanium, read-out: EC50
[7] = Table 4, second-generation peptides, biotinylated at C-terminal lysine, binding to titanium, read-out: EC50
[8] = Table 5, spacing between triplets, biotinylated peptides, binding to titanium, read-out: EC50

SGGGPVTPRFFVVESK [SEQ ID NO: 64]
pEC50 [1, 6]: < 4.00

SHGHGGHGHGSSGK [SEQ ID NO: 80]
pEC50 [1, 7]: 5.40
binding to titanium (in words) ([1]; biotinylated peptides): comparably poorer binding affinity

SHHKGGHHKGSSGK- (not fully specified; printed as SHHKGGHHKGSSGK-; also: name ends with '-': unspecified C-terminal conjugate) [SEQ ID NO: 78]
pEC50 [1, 7]: 6.30

SHKHGGGGHKHGSSGK [SEQ ID NO: 76]
pEC50 [1, 7]: 6.82

SHKHGGGGRFFVVESK [SEQ ID NO: 61]
pEC50 [1, 6]: 5.52

SHKHGGHKHGGHKHGSSGK [SEQ ID NO: 72]
pEC50 [1, 7]: 7.46
EC50 [2]: < 0.1 µM
EC50 [3]: < 0.1 µM
EC50 (μM) Polymer [4]: None
EC50 [5]: < 0.05 µM

SHKHGGHKHGSSGK [SEQ ID NO: 77]
pEC50 [1, 7]: 6.70
EC50 [2]: < 1 µM
EC50 [3]: < 1 µM
EC50 [4]: > 20 µM
EC50 [5]: < 1 µM

SHKHGGKHKGSSGK [SEQ ID NO: 74]
pEC50 [1, 7]: 7.22
EC50 [2]: < 0.1 µM
EC50 [3]: < 0.5 µM
EC50 [4]: > 20 µM
EC50 [5]: < 0.5 µM

SHKHPVTPGFFVVESK [SEQ ID NO: 63]
pEC50 [1, 6]: < 4.30

SHKHPVTPRFFVVESK [SEQ ID NO: 59, Parent]
pEC50 [1, 6]: 5.40

SHKHPVTPRFFVVGSK [SEQ ID NO: 68]
pEC50 [1, 6]: 6.22

SHKHPVTPRFFVVKSK [SEQ ID NO: 66]
pEC50 [1, 6]: 7.30

SHKHPVTPRFFVVNSK [SEQ ID NO: 69]
pEC50 [1, 6]: 6.10

SHKHPVTPRFFVVVSK [SEQ ID NO: 67]
pEC50 [1, 6]: 6.70

SHKHPVTPRFFVVYSK [SEQ ID NO: 65]
pEC50 [1, 6]: 7.30

SHKHPVTPRGGGGESK [SEQ ID NO: 62]
pEC50 [1, 6]: 5.52

SHKHPVTPRGGVVESK [SEQ ID NO: 60]
pEC50 [1, 6]: 5.70

SKHKGGGGGKHKGSSGK [SEQ ID NO: 84]
pEC50 [1, 8]: 7.15

SKHKGGGGKHKGSSGK [SEQ ID NO: 75]
pEC50 [1, 7]: 6.96
EC50 [2]: < 0.1 µM
EC50 [3]: < 0.5 µM
EC50 [4]: > 20 µM
EC50 [5]: < 0.1 µM

SKHKGGGKHKGSSGK [SEQ ID NO: 83]
pEC50 [1, 8]: 7.12

SKHKGGHKHGSSGK [SEQ ID NO: 73]
pEC50 [1, 7]: 7.35
EC50 [2]: < 0.5 µM
EC50 [3]: < 0.5 µM
EC50 [4]: > 20 µM
EC50 [5]: < 0.5 µM

SKHKGGKHKGGKHKGSSGK [SEQ ID NO: 79]
pEC50 [1, 7]: 7.60
pEC50 ([1]; Table 7, peptide monomer versus branched polymers, binding to titanium, read-out: EC50): 7.60
EC50 [2]: < 0.05 µM
EC50 [3]: < 0.05 µM
EC50 [4]: > 20 µM
EC50 [5]: < 0.05 µM

SKHKGGKHKGSSGK [SEQ ID NO: 71]
pEC50 [1, 7]: 7.59
pEC50 [1, 8]: 7.59
EC50 [2]: < 0.1 µM
EC50 [3]: < 0.5 µM
EC50 [4]: > 20 µM
EC50 [5]: < 0.5 µM

SKHKGKHKGSSGK [SEQ ID NO: 82]
pEC50 [1, 8]: 7.22

SKHKKHKGSSGK [SEQ ID NO: 81]
pEC50 [1, 8]: 7.22

SKKHGGKKHGSSGK [SEQ ID NO: 70]
pEC50 [1, 7]: 7.89
EC50 [2]: < 0.1 µM
EC50 [3]: < 0.1 µM
EC50 [4]: > 20 µM
EC50 [5]: < 0.1 µM

ssCDQNDIFYTSKKSHKSHCsr ([code s][code s]CDQNDIFYTSKKSHKSHC[code s][code r]; not fully specified; printed as ssCDQNDIFYTSKKSHKSHCsr; cysteine pairing not given here) [SEQ ID NO: 49]
binding to titanium (in words) ([1]; biotinylated peptides): showed binding
binding to stainless steel (in words) [3]: showed binding

ssCNCYVTPNLLKHKCYKICsr ([code s][code s]CNCYVTPNLLKHKCYKIC[code s][code r]; not fully specified; printed as ssCNCYVTPNLLKHKCYKICsr; cysteine pairing not given here) [SEQ ID NO: 47]
binding to titanium (in words) ([1]; biotinylated peptides, listed as 47): showed binding
binding to titanium (in words) ([1]; biotinylated peptides, listed as SEQ ID NO:47): strongest binding
pEC50 ([1]; biotinylated phage-derived peptide, text of Example 2, read-out: EC50 on titanium): ~6.10
binding to stainless steel (in words) ([3]; listed as 47): showed binding
binding to stainless steel (in words) ([3]; listed as SEQ ID NO:47): strongest binding
pEC50 ([3]; biotinylated phage-derived peptide, text of Example 2, read-out: EC50 on stainless steel): ~6.00

ssCSHNHHKLTAKHQVAHKCsr ([code s][code s]CSHNHHKLTAKHQVAHKC[code s][code r]; not fully specified; printed as ssCSHNHHKLTAKHQVAHKCsr; cysteine pairing not given here) [SEQ ID NO: 48]
binding to titanium (in words) ([1]; biotinylated peptides): showed binding
binding to stainless steel (in words) [3]: showed binding

ssSDKCHKHWYCYESKYGGSsr ([code s][code s]SDKCHKHWYCYESKYGGS[code s][code r]; cysteine pairing not given here; also: biotinylated (site not given here)) [SEQ ID NO: 51]
binding to titanium (in words) ([1]; biotinylated peptides): showed binding
binding to stainless steel (in words) [3]: showed binding
